Source: PubChem BioAssay AID1745844 (Carcinogenic Potency Database (CPDB), 2022)

Test system: rodent lifetime carcinogenesis bioassay, tumor incidence TD50
Experiment: carcinogenic potency in animals, long-term in vivo studies, CPDB compilation (AID 1745844)
Details: in feed

SMILES: OCC(CO)(CBr)CBr
- TD50 (mouse, strain B6C3F1, females, site: Harderian gland + lung + subcutaneous tissue, lesion: adenoma + adenoma, bilateral + carcinoma + alveolar/bronchiolar adenoma + alveolar/bronchiolar carcinoma + fibrosarcoma + sarcoma, dosed 104 weeks, study length 106 weeks): 67.8 mg/kg/day
- TD50 (mouse, strain B6C3F1, females, site: Harderian gland, lesion: adenoma + adenoma, bilateral + carcinoma, dosed 104 weeks, study length 106 weeks): 122 mg/kg/day
- TD50 (mouse, strain B6C3F1, females, site: Harderian gland, lesion: adenoma + adenoma, bilateral, dosed 104 weeks, study length 106 weeks): 187 mg/kg/day
- TD50 (mouse, strain B6C3F1, females, site: Harderian gland, lesion: carcinoma, dosed 104 weeks, study length 106 weeks): 323 mg/kg/day
- TD50 (mouse, strain B6C3F1, females, site: all sites, lesion: hemangioma + hemangiosarcoma, dosed 104 weeks, study length 106 weeks): 846 mg/kg/day
- TD50 (mouse, strain B6C3F1, females, site: all sites, lesion: hemangiosarcoma, dosed 104 weeks, study length 106 weeks): 1480 mg/kg/day
- TD50 (mouse, strain B6C3F1, females, site: any site (literature study), lesion: several types, types named in the paper, dosed 104 weeks, study length 106 weeks): 57.3 mg/kg/day
- TD50 (mouse, strain B6C3F1, females, site: forestomach, lesion: squamous-cell papilloma, dosed 104 weeks, study length 106 weeks): 446 mg/kg/day
- TD50 (mouse, strain B6C3F1, females, site: liver, lesion: hepatocellular adenoma + hepatoblastoma + hepatocellular carcinoma, dosed 104 weeks, study length 106 weeks): 267 mg/kg/day
- TD50 (mouse, strain B6C3F1, females, site: liver, lesion: hepatocellular adenoma, dosed 104 weeks, study length 106 weeks): 301 mg/kg/day
- TD50 (mouse, strain B6C3F1, females, site: lung, lesion: alveolar/bronchiolar adenoma + alveolar/bronchiolar carcinoma, dosed 104 weeks, study length 106 weeks): 127 mg/kg/day
- TD50 (mouse, strain B6C3F1, females, site: lung, lesion: alveolar/bronchiolar adenoma, dosed 104 weeks, study length 106 weeks): 171 mg/kg/day
- TD50 (mouse, strain B6C3F1, females, site: lung, lesion: alveolar/bronchiolar carcinoma, dosed 104 weeks, study length 106 weeks): 398 mg/kg/day
- TD50 (mouse, strain B6C3F1, females, site: mammary gland, lesion: carcinoma, dosed 104 weeks, study length 106 weeks): 1480 mg/kg/day
- TD50 (mouse, strain B6C3F1, females, site: subcutaneous tissue, lesion: fibrosarcoma + sarcoma, dosed 104 weeks, study length 106 weeks): 322 mg/kg/day
- TD50 (mouse, strain B6C3F1, females, site: subcutaneous tissue, lesion: sarcoma, dosed 104 weeks, study length 106 weeks): 350 mg/kg/day
- TD50 (mouse, strain B6C3F1, males, site: Harderian gland + kidney + lung, lesion: adenoma + adenoma, bilateral + carcinoma + carcinoma, bilateral + tubule adenoma + alveolar/bronchiolar adenoma + alveolar/bronchiol, dosed 104 weeks, study length 105 weeks): 106 mg/kg/day
- TD50 (mouse, strain B6C3F1, males, site: Harderian gland, lesion: adenoma + adenoma, bilateral + carcinoma + carcinoma, bilateral, dosed 104 weeks, study length 105 weeks): 155 mg/kg/day
- TD50 (mouse, strain B6C3F1, males, site: Harderian gland, lesion: adenoma + adenoma, bilateral, dosed 104 weeks, study length 105 weeks): 191 mg/kg/day
- TD50 (mouse, strain B6C3F1, males, site: any site (literature study), lesion: several types, types named in the paper, dosed 104 weeks, study length 105 weeks): 126 mg/kg/day
- TD50 (mouse, strain B6C3F1, males, site: forestomach, lesion: squamous-cell carcinoma + squamous-cell papilloma, dosed 104 weeks, study length 105 weeks): 581 mg/kg/day
- TD50 (mouse, strain B6C3F1, males, site: kidney, lesion: tubule adenoma, dosed 104 weeks, study length 105 weeks): 1190 mg/kg/day
- TD50 (mouse, strain B6C3F1, males, site: liver, lesion: hepatocellular adenoma + hepatoblastoma + hepatocellular carcinoma, dosed 104 weeks, study length 105 weeks): 2480 mg/kg/day
- TD50 (mouse, strain B6C3F1, males, site: lung, lesion: alveolar/bronchiolar adenoma + alveolar/bronchiolar carcinoma, dosed 104 weeks, study length 105 weeks): 218 mg/kg/day
- TD50 (mouse, strain B6C3F1, males, site: lung, lesion: alveolar/bronchiolar adenoma, dosed 104 weeks, study length 105 weeks): 270 mg/kg/day
- TD50 (mouse, strain B6C3F1, males, site: lung, lesion: alveolar/bronchiolar carcinoma, dosed 104 weeks, study length 105 weeks): 334 mg/kg/day
- TD50 (mouse, strain B6C3F1, males, site: thyroid gland, lesion: follicular-cell adenoma, dosed 104 weeks, study length 105 weeks): 835 mg/kg/day
- TD50 (rat, strain Fischer 344, females, site: all sites, lesion: mononuclear-cell leukemia, dosed 104 weeks, study length 105 weeks): 406 mg/kg/day
- TD50 (rat, strain Fischer 344, females, site: any site (literature study), lesion: several types, types named in the paper, dosed 104 weeks, study length 105 weeks): 94.4 mg/kg/day
- TD50 (rat, strain Fischer 344, females, site: esophagus + mammary gland + palate + thyroid gland + tongue, lesion: squamous-cell papilloma + adenoma + carcinoma + fibroadenoma + squamous-cell carcinoma + follicular-cell adenoma + follicular-cell c, dosed 104 weeks, study length 105 weeks): 84.3 mg/kg/day
- TD50 (rat, strain Fischer 344, females, site: esophagus, lesion: squamous-cell papilloma, dosed 104 weeks, study length 105 weeks): 1410 mg/kg/day
- TD50 (rat, strain Fischer 344, females, site: mammary gland, lesion: adenoma + carcinoma + fibroadenoma, dosed 104 weeks, study length 105 weeks): 83.8 mg/kg/day
- TD50 (rat, strain Fischer 344, females, site: mammary gland, lesion: adenoma + fibroadenoma, dosed 104 weeks, study length 105 weeks): 83 mg/kg/day
- TD50 (rat, strain Fischer 344, females, site: mammary gland, lesion: fibroadenoma, dosed 104 weeks, study length 105 weeks): 83 mg/kg/day
- TD50 (rat, strain Fischer 344, females, site: palate + tongue, lesion: squamous-cell carcinoma + squamous-cell papilloma, dosed 104 weeks, study length 105 weeks): 1010 mg/kg/day
- TD50 (rat, strain Fischer 344, females, site: palate + tongue, lesion: squamous-cell papilloma, dosed 104 weeks, study length 105 weeks): 1240 mg/kg/day
- TD50 (rat, strain Fischer 344, females, site: pituitary gland, lesion: pars distalis adenoma, dosed 104 weeks, study length 105 weeks): 300 mg/kg/day
- TD50 (rat, strain Fischer 344, females, site: subcutaneous tissue, lesion: fibrosarcoma + fibroma + sarcoma, dosed 104 weeks, study length 105 weeks): 1370 mg/kg/day
- TD50 (rat, strain Fischer 344, females, site: subcutaneous tissue, lesion: fibrosarcoma + sarcoma, dosed 104 weeks, study length 105 weeks): 4200 mg/kg/day
- TD50 (rat, strain Fischer 344, females, site: thyroid gland, lesion: follicular-cell adenoma + follicular-cell carcinoma, dosed 104 weeks, study length 105 weeks): 1670 mg/kg/day
- TD50 (rat, strain Fischer 344, females, site: thyroid gland, lesion: follicular-cell adenoma, dosed 104 weeks, study length 105 weeks): 2160 mg/kg/day
- TD50 (rat, strain Fischer 344, females, site: tongue, lesion: squamous-cell carcinoma + squamous-cell papilloma, dosed 104 weeks, study length 105 weeks): 1260 mg/kg/day
- TD50 (rat, strain Fischer 344, females, site: tongue, lesion: squamous-cell papilloma, dosed 104 weeks, study length 105 weeks): 1360 mg/kg/day
- TD50 (rat, strain Fischer 344, females, site: uterus, lesion: endometrial stromal polyp + endometrial stromal sarcoma, dosed 104 weeks, study length 105 weeks): 859 mg/kg/day
- TD50 (rat, strain Fischer 344, females, site: uterus, lesion: endometrial stromal polyp, dosed 104 weeks, study length 105 weeks): 904 mg/kg/day
- TD50 (rat, strain Fischer 344, males, site: Zymbal's gland, lesion: adenoma + carcinoma + carcinoma, bilateral, dosed 12 weeks, study length 103 weeks): 138 mg/kg/day
- TD50 (rat, strain Fischer 344, males, site: Zymbal's gland, lesion: adenoma + carcinoma, dosed 104 weeks, study length 105 weeks): 1600 mg/kg/day
- TD50 (rat, strain Fischer 344, males, site: Zymbal's gland, lesion: adenoma, dosed 104 weeks, study length 105 weeks): 1950 mg/kg/day
- TD50 (rat, strain Fischer 344, males, site: Zymbal's gland, lesion: carcinoma + carcinoma, bilateral, dosed 12 weeks, study length 103 weeks): 138 mg/kg/day
- TD50 (rat, strain Fischer 344, males, site: all sites + colon + esophagus + gingiva + jejunum + lung + mammary gland + palate + skin + subcutaneous tissue + thyroid gland + tongue + urinar, lesion: mononuclear-cell leukemia + mesothelioma, malignant + adenomatous polyp + squamous-cell papilloma + squamous-cell carcinoma + carc, dosed 104 weeks, study length 105 weeks): 68.1 mg/kg/day
- TD50 (rat, strain Fischer 344, males, site: all sites, lesion: mesothelioma, malignant, dosed 12 weeks, study length 103 weeks): 28.4 mg/kg/day
- TD50 (rat, strain Fischer 344, males, site: all sites, lesion: mesothelioma, malignant, dosed 104 weeks, study length 105 weeks): 335 mg/kg/day
- TD50 (rat, strain Fischer 344, males, site: all sites, lesion: mononuclear-cell leukemia, dosed 12 weeks, study length 103 weeks): 22.5 mg/kg/day
- TD50 (rat, strain Fischer 344, males, site: all sites, lesion: mononuclear-cell leukemia, dosed 104 weeks, study length 105 weeks): 95.8 mg/kg/day
- TD50 (rat, strain Fischer 344, males, site: any site (literature study), lesion: several types, types named in the paper, dosed 12 weeks, study length 103 weeks): 6.25 mg/kg/day
- TD50 (rat, strain Fischer 344, males, site: any site (literature study), lesion: several types, types named in the paper, dosed 104 weeks, study length 105 weeks): 63.8 mg/kg/day
- TD50 (rat, strain Fischer 344, males, site: colon + rectum, lesion: adenomatous polyp + carcinoma, dosed 12 weeks, study length 103 weeks): 146 mg/kg/day
- TD50 (rat, strain Fischer 344, males, site: colon + rectum, lesion: adenomatous polyp, dosed 12 weeks, study length 103 weeks): 152 mg/kg/day
- TD50 (rat, strain Fischer 344, males, site: colon, lesion: adenomatous polyp, dosed 104 weeks, study length 105 weeks): 997 mg/kg/day
- TD50 (rat, strain Fischer 344, males, site: esophagus, lesion: squamous-cell papilloma, dosed 104 weeks, study length 105 weeks): 1390 mg/kg/day
- TD50 (rat, strain Fischer 344, males, site: forestomach, lesion: squamous-cell papilloma, dosed 12 weeks, study length 103 weeks): 217 mg/kg/day
- TD50 (rat, strain Fischer 344, males, site: forestomach, lesion: squamous-cell papilloma, dosed 104 weeks, study length 105 weeks): 16000 mg/kg/day
- TD50 (rat, strain Fischer 344, males, site: gingiva + palate + tongue, lesion: squamous-cell carcinoma + squamous-cell papilloma, dosed 104 weeks, study length 105 weeks): 285 mg/kg/day
- TD50 (rat, strain Fischer 344, males, site: ileum + jejunum, lesion: carcinoma + adenomatous polyp, dosed 12 weeks, study length 103 weeks): 363 mg/kg/day
- TD50 (rat, strain Fischer 344, males, site: ileum + jejunum, lesion: carcinoma, dosed 12 weeks, study length 103 weeks): 445 mg/kg/day
- TD50 (rat, strain Fischer 344, males, site: jejunum, lesion: carcinoma, dosed 104 weeks, study length 105 weeks): 5660 mg/kg/day
